Assay results taken from patent US9623021B2, “Nuclear receptor binding agents” (GTX, Inc., priority 2007, dated 2017).
Entries after “also recorded” stand apart in the source; their conditions may differ.

Experiments:
[1] = test system: Ishikawa endometrial cells; experiment: Ishikawa growth assay (alkaline phosphatase); type: cell-based
Procedure: Ishikawa cells were plated at 15,000 cells/well in 24 well plates in DME:F12 (1:1)+5% csFBS w/o phenol red. The cells were maintained in this medium at 37° C. for 3 days. Medium was changed immediately prior to drug treatment for an additional 72 hrs. After 72 hrs, the cells were fixed with formalin and the amount of alkaline phosphatase (ALP) measured by para-nitrophenyl phosphate method.
This effect is one potential concern in the development of ER-α SERMs.

[2] = test system: LNCaP prostate cancer cells; experiment: LNCaP prostate cancer cell proliferation (3H thymidine incorporation); type: cell-based; details: treated for 6 days, FIG. 21
Procedure: The effects of treatment of an ER-β selective NRBA of this invention on cancer cell proliferation was examined using LNCaP prostate cancer cells and C-26 colon cancer cells. LNCaP or C-26 cells were plated in growth medium in 24 well and 6 well plates, respectively. LNCaP cells were treated for 6 days and C-26 cells were treated for 3 days at the indicated concentration. ^3H thymidine incorporation was measured at the end of treatment as an indicator of cell proliferation.

[3] = test system: high fat diet fed C57BL6 mice; experiment: High fat diet induced obesity model, prevention studies (studies 1 and 2)
Procedure: Study A: C57BL6 male mice of 4 weeks of age were divided into different groups and were fed with a normal or high fat diet (Harlan, Ind.).
For the treatment study (study 3), the animals were maintained on the irrespective diets for 6 weeks and then treated daily as indicated for an additional 18 weeks. Biweekly body weights and food consumption were measured. The animals were sacrificed at the end of each study and blood and tissues were collected for RNA isolation, histology and protein estimation.
Cholesterol and leptin concentrations were measured in serum using ELISA-based methods.
Histology was performed on cryosections and stained with oil 0 red.
Oral glucose tolerance tests (OGTT) were performed on 16-h fasted mice. Mice were given 150 mg glucose by oral gavage through a gastric tube.
Six week old C57BL/6 mice were randomized, based on body weight, into three study groups as shown in the Study Parameters Table below.
The mice were treated for 12 weeks. Twice weekly, the body weight and feed consumption were measured.
A glucose tolerance test was also performed at the completion of the study by administering 150 mg glucose orally to the mice and measuring blood glucose levels at 0, 15, 30 and 60 minutes post glucose administration.
At sacrifice, the mice organ weights were measured and collected for histology, gene expression and protein expressions. Blood was collected for serum marker determination (cholesterol, glucose, leptin).
Dual energy X-ray absorptiometry (DEXA) was performed to measure the body composition in Study 1.
An MRI scan was performed at the beginning of the study, after 6 weeks and at the completion of the study.

ER-α = ER-α (Rattus norvegicus (Rat), UniProt P06211); experiment: Transient transfection and reporter gene assay, ER-α, HEK-293 cells (Example 22A); type: cell-based; details: ERE-LUC
Procedure: Human estrogen receptors (ER-α and ER-β) were cloned from prostate cDNA into a pCR3.1 plasmid vector backbone. PGC-1 was cloned into mammalian two hybrid vector pACT. ER-β H475 was mutated to alanine using site-directed mutagenesis. Sequencing was performed to determine the absence of any non specific mutations. SHP promoter (−572 to +10) (26) was cloned into pGL3 basic LUC reporter vector and human FXR was cloned into pCR3.1. HEK-293 cells were plated at 100,000 cells per well of a 24 well plate in […] (DMEM)+5% charcoal-stripped fetal bovine serum (csFBS). The cells were transfected using Lipofectamine (Invitrogen, Carlsbad, Calif.) with 0.25 μg ERE-LUC, 0.02 μg CMV-LUC (renilla luciferase) and 12.5 ng of rat ER-α or 25 ng rat ER-β. […] Luciferase assays were performed 48 hrs after transfection.
To determine if the selectivity in ER binding also translated into ER-β-selective activity, transient transactivation assays were performed in HEK-293 cells transfected with plasmids encoding ER-α or ER-β and ERE-LUC. The cells were treated with varying concentrations of the ligands and their EC50 values were determined.

[4] = test system: high fat diet fed obese mice; experiment: High fat diet induced obesity model, treatment study (study 3); type: in vivo, C57BL6 male mice; details: high fat diet 6 weeks, then 30 mg/kg/day s.c.
Procedure: For the treatment obesity study (where the animals were fed with high fat diet for six weeks prior to beginning drug treatment for 18 weeks), MRI scans were performed at weeks 0, 6, 12, 18 and 24.
As the first two studies were designed to prevent obesity (i.e. animals were fed with a high fat diet and treated simultaneously), a subsequent study was conducted to evaluate the ability of 12u to affect body composition in mice that were already fed with the high fat diet and were obese. Mice were divided into three groups with one group fed with normal diet (control) and the other two groups fed with the high fat diet for 6 weeks. […] All the animals were maintained in their respective diets during the entire course of the study.

[5] = test system: THP-1 macrophage cell adhesion to bEND-3 endothelial cells; experiment: Macrophage adhesion assay (LPS induced THP-1 adhesion to bEND-3 endothelial cells); type: cell-based; details: FIG. 13
Procedure: To determine the anti-inflammatory effects of ER-β NRBAs in vitro, a macrophage adhesion assay was performed. Macrophages adhere to endothelial cells due to elevated levels of pro-inflammatory cytokines. This principle was used in this assay to determine the effect of one of the ER-β NRBAs on bacterial lipopolysaccharide (LPS) induced THP-1 macrophage cell adhesion to bEND-3 endothelial cells.

SHP promoter = experiment: SHP promoter-luciferase in HEK-293 cells transfected with FXR and ER-β; type: cell-based; details: FXR and ER-β plasmids, FIG. 12E right panel
Procedure: FIG. 12 depict the effect of ER-β ligand on PPAR-γ function through ligand binding domain (LBD). (A). HEK-293 cells were transfected with 0.25 μg PPRE-LUC, 5 ng CMV-renilla LUC and the indicated receptors (PPAR-γ and ER-β for the left panel and PPAR-α and ER-β for the right panel). The cells were treated 24 hrs after transfection with the indicated ligands and harvested 48 hrs after transfection and firefly luciferase activity was measured and normalized to renilla luciferase. (B). H475 in ER-β LBD is important for its function. H475 in ER-β LBD was mutated to alanine (A) using a site directed mutagenesis kit. Transactivation assay was performed as described in panel A in HEK-293 cells with a titration of ER-β ligands in wild type or ER-β H475A. (C). […] HEK-293 cells were transfected with 0.25 μg PPRE-LUC, 5 ng CMV-renilla LUC and 50 ng of the indicated receptors (PPAR-γ or PPAR-γ and wild type ER-β or PPAR-γ and ER-β H475A). The cells were treated 24 hrs after transfection with the indicated ligands and harvested 48 hrs after transfection and firefly luciferase activity was measured and normalized to renilla luciferase. (D). […] HepG2 cells were transfected with 0.25 μg PPRE-LUC, 5 ng CMV-renilla LUC, 0.5 μg PGC-1 or vector backbone and 100 ng of the indicated receptors (PPAR-γ or PPAR-γ and wild type ER-β or PPAR-γ and ER-β H475A for top panels and PPAR-α or PPAR-α and ER-β for bottom panel). The cells were treated 24 hrs after transfection with the indicated ligands and harvested 48 hrs after transfection and firefly luciferase activity was measured and normalized to renilla luciferase. (E). SHP-1 is an ER-β specific target gene. HEK-293 cells were transfected with 0.25 μg SHP-LUC, 5 ng CMV-renilla LUC and 50 ng of the indicated receptors (FXR and ER-α for the left panel and FXR and ER-β for the right panel). The cells were treated 24 hrs after transfection with the indicated ligands and harvested 48 hrs after transfection and firefly luciferase activity was measured and normalized to renilla luciferase. […]

[6] = high fat diet, 30 mg/kg/day s.c., 12 weeks, FIG. 7
[7] = high fat diet, 30 mg/kg/day s.c., Study 2

For `O=c1c2c(O)cc(O)cc2c(Br)cn1-c1ccc(O)cc1` [Compound 12u, 4-bromo-6,8-dihydroxy-2-(4-hydroxyphenyl)isoquinolin-1(2H)-one], the Ishikawa cell proliferation ([1]; FIG. 3C) was “weakly induce”, the “concentration at which proliferation of Ishikawa cells was induced” value ([1]; highest concentration tested, ALP assay, 72 hrs) was 1 µM and the “growth of LNCaP prostate cancer cells” value [2] was “significantly inhibited the growth”. The “prevention of body weight increase caused by the high fat diet” value ([3]; 30 mg/kg/day s.c., 12 weeks, Study 2) was “more than 50%”, the gastrocnemius muscle weight [3, 6] was “increased gastrocnemius muscle weight” and the “white adipose tissue (WAT) weight” value [3, 6] was “prevented the increase in the WAT weight; also recorded: comparably decreased WAT weight”. For the same compound, the “fat mass (MRI)” value [3, 7] was “reduce fat mass”, the “lean mass (MRI)” value [3, 7] was “increase muscle mass; also recorded: increased the lean mass” and the “prevention of the increase in body fat (MRI)” value [3, 7] was “more than 50%”. For the same compound, the testes weights ([3]; high fat diet, 12 weeks, FIG. 9A) was “not altered”, the serum testosterone levels ([3]; high fat diet, 12 weeks, FIG. 9B) was “did not affect; also recorded: not altered” and the “serum follicle stimulating hormone (FSH)” value ([3]; high fat diet, 12 weeks, FIG. 9C) was “not altered”. For the same compound, the “function at ER-α in transactivation” value (ER-α) was “agonists”, the body weight ([4]; FIG. 10A) was “prevented further gains in body weight” and the “body fat increase (MRI)” value ([4]; FIG. 10B) was “reduced”. The “adhesion of 3H labeled THP-1 cells to bEND-3 cells” value [5] was “significantly inhibited the adhesion” and the SHP activity (SHP promoter) was “neither of the ligands activated SHP”.
